Test results taken from PubChem BioAssay (NCI).
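96-well plates; 48 h exposure; 5 concentrations. Endpoints by linear interpolation between flanking doses. Not reached: highest tested concentration assigned. TGI: concentration producing complete growth inhibition.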

Experiments:
Experiment in all cases: growth of human tumour cells (NCI), 48 h
HCC-2998 colon = tested on: HCC-2998 colon
HL-60(TB) leukemia = tested on: HL-60(TB) leukemia
HOP-18 NSCLC = tested on: HOP-18 NSCLC
HOP-62 NSCLC = tested on: HOP-62 NSCLC
HOP-92 NSCLC = tested on: HOP-92 NSCLC
HT29 colon = tested on: HT29 colon
M19-MEL melanoma = tested on: M19-MEL melanoma
MALME-3M melanoma = tested on: MALME-3M melanoma
MCF7 breast = tested on: MCF7 breast
NCI-H23 lung = tested on: NCI-H23 lung
NCI/ADR-RES ovarian = tested on: NCI/ADR-RES ovarian
OVCAR-3 ovarian = tested on: OVCAR-3 ovarian
SF-295 CNS = tested on: SF-295 CNS
SF-539 CNS = tested on: SF-539 CNS
SK-MEL-5 melanoma = tested on: SK-MEL-5 melanoma
SK-OV-3 ovarian = tested on: SK-OV-3 ovarian
SN12C renal = tested on: SN12C renal
SW-620 colon = tested on: SW-620 colon
UACC-62 melanoma = tested on: UACC-62 melanoma
CAKI-1 renal = tested on: CAKI-1 renal

Measured: TGI

O=C1NC(=O)C(CCO)(c2ccccc2)C(=O)N1
not listed: CAKI-1 renal
> 100 µM: all other assays above

CCOC(=O)CC1CCN(C(=O)c2ccccc2)C2Cc3c([nH]c4ccccc34)C12C[N+](=O)[O-] (configuration not stated)
not listed: HCC-2998 colon | HOP-18 NSCLC | M19-MEL melanoma | OVCAR-3 ovarian
> 100 µM: all other assays above

COC(=O)c1ccc(/C=C2\N=C(C)OC2=O)cc1
not listed: MALME-3M melanoma | MCF7 breast | NCI/ADR-RES ovarian
> 100 µM: all other assays above

O=c1c(-c2ccccc2)c(SCCCN2CCN(c3cccc(Cl)c3)CC2)n(-c2ccccc2)c(=S)n1-c1ccccc1
not listed: HOP-18 NSCLC | M19-MEL melanoma | SN12C renal
> 100 µM: all other assays above

CCCCN1C=CN2c3nc4cc(C)c(C)cc4n3C(C(=O)OC)=C(C(=O)OC)C12 (configuration not stated)
not listed: MCF7 breast | NCI/ADR-RES ovarian
> 100 µM: all other assays above
